Results on ten compounds are retold here after ChEMBL document CHEMBL1201862, “PubChem BioAssay data set” (2004).

Test systems include RPMI-8226; HCT-15; SF-268; MOLT-4; IGROV-1; SR; NCI/ADR-RES; 786-0; A498; K562; HL-60; SF-539; COLO 205; HCT-116; NCI-H522; SNB-19; OVCAR-4; HCC 2998; UACC-257; NCI-H23.
Test in all cases: NCI anticancer screen, dose series, 48 h

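Method: 48-hour compound exposure of cells in 96-well plates, five concentrations, linear interpolation of endpoints. GI50 is the concentration that inhibits growth by half.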 Active and inactive are the calls of the source. Cut-off read from the data, not from the text of the source: active = GI50 up to about 1.1 µM and inactive = higher. Where only a bound is given, the exact number is not on record here.

`CC1=C(O)C(=O)c2ccccc2C1=O`: the GI50 in the assay with RPMI-8226 is 18.6 µM (inactive); in the assay with HCT-15, 27 µM; in the assay on SF-268, 94.6 µM (inactive); in the assay with MOLT-4, > 100 µM (inactive); in the assay on IGROV-1, 80.4 µM (inactive); in the assay on SR, 88.5 µM (inactive). Besides, the GI50 in the assay with NCI/ADR-RES was > 100 µM (inactive); with 786-0 it was 71.9 µM (inactive); in the assay on A498, > 100 µM (inactive); in the assay on K562 it was 78.5 µM (inactive); in the assay on HL-60, 6.82 µM (inactive); in the assay with SF-539, > 100 µM (inactive). Moreover, the GI50 is > 100 µM (inactive) in the assay on COLO 205; > 100 µM (inactive) in the assay with HCT-116; 47.9 µM (inactive) in the assay on NCI-H522; > 100 µM (inactive) in the assay on SNB-19; > 100 µM (inactive) with OVCAR-4; > 100 µM (inactive) in the assay with HCC 2998. For the same compound, the figures for the GI50 in the assay on UACC-257 and in the assay on NCI-H23 were 47.3 µM (inactive) and 12.3 µM (inactive), respectively.
`Cn1c(=O)cc(/N=N\c2ccc(Cl)c(Cl)c2)[nH]c1=O`: the GI50 was 28.3 µM (inactive) with RPMI-8226; 19.6 µM with HCT-15; 20.1 µM (inactive) in the assay on SF-268; 28.6 µM (inactive) with MOLT-4; 33 µM (inactive) with IGROV-1; 25.5 µM (inactive) in the assay with SR. The GI50 in the assay on NCI/ADR-RES is 34.2 µM (inactive); with 786-0 it was 17.6 µM (inactive); in the assay with A498 it was > 100 µM (inactive); in the assay on K562, 28.1 µM (inactive); in the assay on HL-60, 20.8 µM (inactive); in the assay on SF-539, > 100 µM (inactive). The GI50 in the assay with COLO 205 is 22.2 µM (inactive); with HCT-116, 28.4 µM (inactive); with NCI-H522 it was 25.6 µM (inactive); in the assay with SNB-19, 63.8 µM (inactive); with OVCAR-4 it was 27.7 µM (inactive); with HCC 2998 it was 56.8 µM (inactive). Further, the GI50 with UACC-257 is 33.5 µM (inactive); in the assay on NCI-H23, 37.3 µM (inactive).
With `c1cc(-c2ccsc2-c2ccsc2)cs1`, the GI50 with RPMI-8226 was 29.9 µM (inactive); with HCT-15 it was 47.8 µM; in the assay on SF-268, > 86.1 µM (inactive); in the assay on MOLT-4, 25.2 µM (inactive); in the assay with IGROV-1 it was > 79.3 µM (inactive); with SR, 16.3 µM (inactive). Also, the GI50 was > 100 µM (inactive) in the assay on NCI/ADR-RES; > 93.3 µM (inactive) in the assay on 786-0; > 100 µM (inactive) in the assay with A498; > 27.2 µM (inactive) in the assay with K562; 37.5 µM (inactive) with HL-60; > 100 µM (inactive) with SF-539. In addition, the GI50 was > 87.1 µM (inactive) with COLO 205; 52.1 µM (inactive) in the assay on HCT-116; 26.1 µM (inactive) in the assay on NCI-H522; > 100 µM (inactive) in the assay on SNB-19; > 55.3 µM (inactive) with OVCAR-4; 46.8 µM (inactive) with HCC 2998. Also, the GI50 with UACC-257 was > 100 µM (inactive); in the assay with NCI-H23, 46.3 µM (inactive).
With `COC(=O)C1(C)CCCC2(C)c3cc(OC)ccc3C(=O)C(Br)C12` (stereo not given), the GI50 in the assay with RPMI-8226 is 2.24 µM (inactive); in the assay on HCT-15 it was more than 10 µM; with SF-268 it was > 10 µM (inactive); with MOLT-4, 1.75 µM (inactive); in the assay on IGROV-1 it was > 10 µM (inactive); in the assay on SR, 2.76 µM (inactive). Also, the GI50 with NCI/ADR-RES was > 10 µM (inactive); in the assay with 786-0 it was 1.84 µM (inactive); with A498 it was > 10 µM (inactive); with K562, 3.68 µM (inactive); in the assay with HL-60, 2.14 µM (inactive); in the assay on SF-539, > 10 µM (inactive). The GI50 in the assay with COLO 205 is 2.63 µM (inactive); with HCT-116, 2.79 µM (inactive); with NCI-H522, 2.86 µM (inactive); in the assay on SNB-19 it was > 10 µM (inactive); in the assay with HCC 2998, > 10 µM (inactive); in the assay with UACC-257, > 10 µM (inactive). Moreover, the GI50 with NCI-H23 is > 10 µM (inactive).
In the case of `c1cnc2c(c1)Nc1cnncc1S2`, the GI50 with RPMI-8226 is > 100 µM (inactive); in the assay on HCT-15 it was more than 100 µM; with SF-268 it was > 100 µM (inactive); in the assay with MOLT-4, > 100 µM (inactive); in the assay on IGROV-1, > 100 µM (inactive); with SR, 53.3 µM (inactive). Moreover, the GI50 in the assay with NCI/ADR-RES, in the assay on 786-0, with A498, in the assay with K562, in the assay with HL-60 and with SF-539 was > 100 µM (inactive) each time. The GI50 in the assay on COLO 205, with HCT-116, in the assay with NCI-H522, in the assay with SNB-19, in the assay on OVCAR-4 and in the assay with HCC 2998 was > 100 µM (inactive) in each case. The GI50 with UACC-257 and in the assay on NCI-H23 was > 100 µM (inactive) throughout.
On to `Clc1ccc(C(c2ccccc2Cl)C(Cl)Cl)cc1` (stereo not given) [MITOTANE], for which the GI50 was 14.5 µM (inactive) with RPMI-8226; 15.8 µM with HCT-15; 18.5 µM (inactive) in the assay on SF-268; 14.7 µM (inactive) in the assay on MOLT-4; 13.9 µM (inactive) with IGROV-1; 18.7 µM (inactive) in the assay on SR. In addition, the GI50 with NCI/ADR-RES is 15.3 µM (inactive); with 786-0, 19.2 µM (inactive); in the assay on A498, 20.2 µM (inactive); in the assay on K562 it was 16.3 µM (inactive); in the assay with HL-60, 18.7 µM (inactive); in the assay on SF-539, 17.1 µM (inactive). Further, the GI50 in the assay on COLO 205 is 17.3 µM (inactive); in the assay with HCT-116 it was 13.2 µM (inactive); with NCI-H522, 16.7 µM (inactive); in the assay with SNB-19, 17.6 µM (inactive); with OVCAR-4 it was 16 µM (inactive); with HCC 2998, 12.7 µM (inactive). Also, the values for the GI50 in the assay with UACC-257 and in the assay on NCI-H23 were 19.4 µM (inactive) and 19 µM (inactive), respectively.
Turning to `CC(=O)c1cccc(NC(=O)C(=O)c2c(O)oc3ccccc3c2=O)c1`, the GI50 with RPMI-8226 is > 100 µM (inactive); in the assay on HCT-15, more than 100 µM; with SF-268, > 100 µM (inactive); in the assay with MOLT-4 it was > 100 µM (inactive); in the assay on IGROV-1, > 100 µM (inactive); with SR it was > 100 µM (inactive). The GI50 in the assay on NCI/ADR-RES is > 100 µM (inactive); with 786-0, > 100 µM (inactive); in the assay with A498, > 100 µM (inactive); in the assay on K562, > 100 µM (inactive); with HL-60, 10 µM (inactive); in the assay on SF-539, > 100 µM (inactive). For the same compound, the GI50 in the assay on HCT-116, in the assay with NCI-H522, in the assay on SNB-19, in the assay on OVCAR-4, in the assay with HCC 2998 and with UACC-257 was > 100 µM (inactive) in each case. Moreover, the GI50 with NCI-H23 was > 100 µM (inactive).
`Oc1ccc(/C=C/c2cc(O)cc3c2C(c2cc(O)cc(O)c2)C(c2ccc(O)c(O)c2)O3)cc1` (stereo not given): the GI50 was 13.5 µM (inactive) in the assay on RPMI-8226; 20 µM in the assay on HCT-15; 30.6 µM (inactive) in the assay with SF-268; 11.6 µM (inactive) with MOLT-4; 31.4 µM (inactive) with IGROV-1; 17.6 µM (inactive) in the assay with SR. The GI50 in the assay on NCI/ADR-RES is 31.8 µM (inactive); in the assay on 786-0 it was 41.8 µM (inactive); in the assay on A498, 33.5 µM (inactive); in the assay on HL-60 it was 27.1 µM (inactive); in the assay on SF-539 it was 34.4 µM (inactive); with COLO 205 it was 19.5 µM (inactive). Also, the GI50 with HCT-116 was 35.9 µM (inactive); in the assay with NCI-H522 it was 27 µM (inactive); in the assay with SNB-19, 18.6 µM (inactive); in the assay with OVCAR-4, 16.8 µM (inactive); in the assay with HCC 2998 it was 25.4 µM (inactive); in the assay on UACC-257, 25.3 µM (inactive). The GI50 with NCI-H23 was 18.8 µM (inactive).
Take `CN(c1cn(C2CC[C@@H](CO)O2)c(=O)[nH]c1=O)C1CCCCC1` (stereo not given in full): the GI50 with RPMI-8226 is > 100 µM (inactive); in the assay with HCT-15 it was more than 100 µM; in the assay on SF-268, > 100 µM (inactive); in the assay with MOLT-4, > 100 µM (inactive); in the assay with IGROV-1, > 100 µM (inactive); in the assay on SR, > 100 µM (inactive). The GI50 in the assay on NCI/ADR-RES, with 786-0, with A498, with K562, in the assay on HL-60 and with SF-539 was > 100 µM (inactive) throughout. In addition, the GI50 in the assay with COLO 205, in the assay with HCT-116, with NCI-H522, in the assay on SNB-19, in the assay on OVCAR-4 and in the assay on HCC 2998 was > 100 µM (inactive) in each case. In the assay on NCI-H23, the GI50 was > 100 µM (inactive).
As to `CC(C)C1CC(CO)(CNc2cc(Cl)nc(N)n2)C1` (stereo not given), the GI50 is 11.8 µM (inactive) in the assay with RPMI-8226; 22.5 µM in the assay with HCT-15; 5 µM (inactive) in the assay on SF-268; > 10 µM (inactive) in the assay on MOLT-4; > 100 µM (inactive) with IGROV-1; 14.9 µM (inactive) with SR. Moreover, the GI50 was 16.8 µM (inactive) in the assay with NCI/ADR-RES; > 100 µM (inactive) in the assay on 786-0; 4.49 µM (inactive) in the assay on A498; 9.57 µM (inactive) in the assay with K562; 18.1 µM (inactive) in the assay on HL-60; 73.8 µM (inactive) with SF-539. The GI50 with COLO 205 was > 100 µM (inactive); with HCT-116, 41.3 µM (inactive); in the assay on NCI-H522 it was 39 µM (inactive); in the assay with SNB-19, > 100 µM (inactive); in the assay on OVCAR-4, 20.7 µM (inactive); in the assay on HCC 2998, 34.8 µM (inactive). The GI50 in the assay on UACC-257 is 1.15 µM (inactive).
